Laboratory results from patent US9394282B2, “Pyrazole carboxamides as Janus kinase inhibitors” (Merck Sharp & Dohme Corp., priority 2011, dated 2016).

Assays:
JAK2 = JAK2 (Homo sapiens (Human), UniProt O60674); test: Jak biochemical HTRF assay, JAK2; settings: recombinant purified GST-tagged catalytic domain; HTRF format; [ATP] 8.5 μM
Source text: (§1) Jak Biochemical HTRF Assay Protocol
(§2) Subsequent reagent additions employed an Agilent Bravo.

JAK1 = JAK1 (Homo sapiens (Human), UniProt P23458); test: Jak biochemical HTRF assay, JAK1; settings: recombinant purified GST-tagged catalytic domain; HTRF format; [ATP] 31.8 μM
Chain of JAK1 (P23458 875-1153): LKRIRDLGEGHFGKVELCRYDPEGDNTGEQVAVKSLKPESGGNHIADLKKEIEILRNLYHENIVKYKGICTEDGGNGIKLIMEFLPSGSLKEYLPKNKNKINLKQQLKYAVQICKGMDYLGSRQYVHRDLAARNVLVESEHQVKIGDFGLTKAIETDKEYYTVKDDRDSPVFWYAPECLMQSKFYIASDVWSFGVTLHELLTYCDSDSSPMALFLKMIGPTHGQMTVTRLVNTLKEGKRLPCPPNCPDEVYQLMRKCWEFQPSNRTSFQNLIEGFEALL
Source text: as §1, §2

Chain of JAK2 (O60674 849-1124): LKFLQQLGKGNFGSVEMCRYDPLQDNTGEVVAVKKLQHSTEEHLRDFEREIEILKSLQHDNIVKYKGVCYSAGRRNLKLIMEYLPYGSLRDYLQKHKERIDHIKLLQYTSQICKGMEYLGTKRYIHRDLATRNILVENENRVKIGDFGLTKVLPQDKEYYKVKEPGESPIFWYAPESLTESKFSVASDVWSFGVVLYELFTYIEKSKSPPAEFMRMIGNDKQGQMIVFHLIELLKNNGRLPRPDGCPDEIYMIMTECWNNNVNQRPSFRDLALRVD

IC50 (JAK2)	IC50 (JAK1)	Compound
133 nM	6 nM	N#C[C@@H]1CN(C(=O)OC(CF)CF)CC[C@H]1n1cc(C(N)=O)c(Nc2ccc(F)cc2)n1 (racemic) [Example 5-31, 2-fluoro-1-(fluoromethyl)ethyl (3R,4R and 3S,4S)-4-{4-carbamoyl-3-[(4-fluorophenyl)amino]-1H-pyrazol-1-yl}-3-cyanopiperidine-1-carboxylate]
468 nM	19 nM	CC(OC(=O)N1CC[C@@H](n2cc(C(N)=O)c(Nc3ccc(F)cc3)n2)[C@H](C#N)C1)C1CC1 (mixture of isomers) [Example 5-35, 1-cyclopropylethyl (3R,4R and 3S,4S)-4-{4-carbamoyl-3-[(4-fluorophenyl)amino]-1H-pyrazol-1-yl}-3-cyanopiperidine-1-carboxylate]
823 nM	86 nM	N#C[C@@H]1CN(C(=O)OCCc2ccccc2)CC[C@H]1n1cc(C(N)=O)c(Nc2ccc(F)cc2)n1 (racemic) [Example 5-36, 2-phenylethyl (3R,4R and 3S,4S)-4-{4-carbamoyl-3-[(4-fluorophenyl)amino]-1H-pyrazol-1-yl}-3-cyanopiperidine-1-carboxylate]
> 1500 nM	54 nM	N#C[C@@H]1CN(C(=O)OC2Cc3ccccc3C2)CC[C@H]1n1cc(C(N)=O)c(Nc2ccc(F)cc2)n1 (racemic) [Example 5-37, 2,3-dihydro-1H-inden-2-yl (3R,4R and 3S,4S)-4-{4-carbamoyl-3-[(4-fluorophenyl)amino]-1H-pyrazol-1-yl}-3-cyanopiperidine-1-carboxylate]
> 1500 nM	652 nM	N#C[C@@H]1CN(C(=O)OC2Cc3ccccc3C2)CC[C@@H]1n1cc(C(N)=O)c(Nc2ccc(F)cc2)n1 (racemic) [Example 5-42, 2,3-dihydro-1H-inden-2-yl (3R,4S and 3S,4R)-4-{4-carbamoyl-3-[(4-fluorophenyl)amino]-1H-pyrazol-1-yl}-3-cyanopiperidine-1-carboxylate]
> 1500 nM	188 nM	CC(OC(=O)N1CC[C@H](n2cc(C(N)=O)c(Nc3ccc(F)cc3)n2)[C@H](C#N)C1)C(F)(F)F (mixture of isomers) [Example 5-43, 2,2,2-trifluoro-1-methylethyl (3R,4S and 3S,4R)-4-{4-carbamoyl-3-[(4-fluorophenyl)amino]-1H-pyrazol-1-yl}-3-cyanopiperidine-1-carboxylate]
1340 nM	121 nM	N#C[C@@H]1CN(C(=O)OC(CF)CF)CC[C@@H]1n1cc(C(N)=O)c(Nc2ccc(F)cc2)n1 (racemic) [Example 5-47, 2-fluoro-1-(fluoromethyl)ethyl (3R,4S and 3S,4R)-4-{4-carbamoyl-3-[(4-fluorophenyl)amino]-1H-pyrazol-1-yl}-3-cyanopiperidine-1-carboxylate]
> 1500 nM	403 nM	N#C[C@@H]1CN(C(=O)OCCc2ccccc2)CC[C@@H]1n1cc(C(N)=O)c(Nc2ccc(F)cc2)n1 (racemic) [Example 5-48, 2-phenylethyl (3R,4S and 3S,4R)-4-{4-carbamoyl-3-[(4-fluorophenyl)amino]-1H-pyrazol-1-yl}-3-cyanopiperidine-1-carboxylate]
> 1500 nM	529 nM	COCCOC(=O)N1CC[C@H](n2cc(C(N)=O)c(Nc3ccc(F)cc3)n2)[C@H](C#N)C1 (racemic) [Example 5-54, 2-methoxyethyl (3R,4S and 3S,4R)-4-{4-carbamoyl-3-[(4-fluorophenyl)amino]-1H-pyrazol-1-yl}-3-cyanopiperidine-1-carboxylate]
> 1500 nM	350 nM	N#C[C@@H]1CN(C(=O)OCCCc2ccccc2)CC[C@@H]1n1cc(C(N)=O)c(Nc2ccc(F)cc2)n1 (racemic) [Example 5-55, 3-phenylpropyl (3R,4S and 3S,4R)-4-{4-carbamoyl-3-[(4-fluorophenyl)amino]-1H-pyrazol-1-yl}-3-cyanopiperidine-1-carboxylate]
1110 nM	295 nM	N#C[C@@H]1CN(C(=O)OC2COC2)CC[C@@H]1n1cc(C(N)=O)c(Nc2ccc(F)cc2)n1 (racemic) [Example 5-57, oxetan-3-yl (3R,4S and 3S,4R)-4-{4-carbamoyl-3-[(4-fluorophenyl)amino]-1H-pyrazol-1-yl}-3-cyanopiperidine-1-carboxylate]
1120 nM	102 nM	N#C[C@@H]1CN(C(=O)OCCF)CC[C@@H]1n1cc(C(N)=O)c(Nc2ccc(F)cc2)n1 (racemic) [Example 5-58, 2-fluoroethyl (3R,4S and 3S,4R)-4-{4-carbamoyl-3-[(4-fluorophenyl)amino]-1H-pyrazol-1-yl}-3-cyanopiperidine-1-carboxylate]
1200 nM	69 nM	N#C[C@@H]1CN(C(=O)OCC(F)(F)CO)CC[C@@H]1n1cc(C(N)=O)c(Nc2ccc(F)cc2)n1 (racemic) [Example 5-67, 2,2-difluoro-3-hydroxypropyl (3R,4S and 3S,4R)-4-{4-carbamoyl-3-[(4-fluorophenyl)amino]-1H-pyrazol-1-yl}-3-cyanopiperidine-1-carboxylate]
> 1500 nM	434 nM	CC(OC(=O)N1CC[C@H](n2cc(C(N)=O)c(Nc3ccc(F)cc3)n2)[C@H](C#N)C1)C1CC1 (mixture of isomers) [Example 5-68, 1-cyclopropylethyl (3R,4S and 3S,4R)-4-{4-carbamoyl-3-[(4-fluorophenyl)amino]-1H-pyrazol-1-yl}-3-cyanopiperidine-1-carboxylate]
135 nM	8 nM	CC(OC(=O)N1CC[C@@H](C#N)C(n2cc(C(N)=O)c(Nc3ccc(F)cc3)n2)C1)C(F)(F)F (mixture of isomers) [Example 5-70, 2,2,2-trifluoro-1-methylethyl (3S,4R and 3R,4S)-3-{4-carbamoyl-3-[(4-fluorophenyl)amino]-1H-pyrazol-1-yl}-4-cyanopiperidine-1-carboxylate]
44 nM	4 nM	N#C[C@@H]1CCN(C(=O)OC(CF)CF)CC1n1cc(C(N)=O)c(Nc2ccc(F)cc2)n1 (mixture of isomers) [Example 5-71, 2-fluoro-1-(fluoromethyl)ethyl (3S,4R and 3R,4S)-3-{4-carbamoyl-3-[(4-fluorophenyl)amino]-1H-pyrazol-1-yl}-4-cyanopiperidine-1-carboxylate]
69 nM	5 nM	CC1(COC(=O)N2CC[C@@H](C#N)C(n3cc(C(N)=O)c(Nc4ccc(F)cc4)n3)C2)CC1 (mixture of isomers) [Example 5-72, (1-methylcyclopropyl)methyl (3S,4R and 3R,4S)-3-{4-carbamoyl-3-[(4-fluorophenyl)amino]-1H-pyrazol-1-yl}-4-cyanopiperidine-1-carboxylate]
77 nM	6 nM	CC(OC(=O)N1CC[C@@H](C#N)C(n2cc(C(N)=O)c(Nc3ccc(F)cc3)n2)C1)C1CC1 (mixture of isomers) [Example 5-73, 1-cyclopropylethyl (3S,4R and 3R,4S)-3-{4-carbamoyl-3-[(4-fluorophenyl)amino]-1H-pyrazol-1-yl}-4-cyanopiperidine-1-carboxylate]
14 nM	1 nM	N#C[C@@H]1CCN(C(=O)OCC(F)(F)CO)CC1n1cc(C(N)=O)c(Nc2ccc(F)cc2)n1 (mixture of isomers) [Example 5-74, 2,2-difluoro-3-hydroxypropyl (3S,4R and 3R,4S)-3-{4-carbamoyl-3-[(4-fluorophenyl)amino]-1H-pyrazol-1-yl}-4-cyanopiperidine-1-carboxylate]
444 nM	16 nM	CN(C)CC(C)(C)COC(=O)N1CC[C@@H](C#N)C(n2cc(C(N)=O)c(Nc3ccc(F)cc3)n2)C1 (mixture of isomers) [Example 5-75, 3-(dimethylamino)-2,2-dimethylpropyl (3S,4R and 3R,4S)-3-{4-carbamoyl-3-[(4-fluorophenyl)amino]-1H-pyrazol-1-yl}-4-cyanopiperidine-1-carboxylate]
62 nM	5 nM	CCOC(=O)N1CC[C@@H](C#N)C(n2cc(C(N)=O)c(Nc3ccc(F)cc3)n2)C1 (mixture of isomers) [Example 5-76, ethyl (3S,4R and 3R,4S)-3-{4-carbamoyl-3-[(4-fluorophenyl)ainino]-1H-pyrazol-1-yl}-4-cyanopiperidine-1-carboxylate]
76 nM	4 nM	CC(C)COC(=O)N1CC[C@@H](C#N)C(n2cc(C(N)=O)c(Nc3ccc(F)cc3)n2)C1 (mixture of isomers) [Example 5-77, 2-methylpropyl (3S,4R and 3R,4S)-3-{4-carbamoyl-3-[(4-fluorophenyl)amino]-1H-pyrazol-1-yl}-4-cyanopiperidine-1-carboxylate]
145 nM	6 nM	CC(C)(C)COC(=O)N1CC[C@@H](C#N)C(n2cc(C(N)=O)c(Nc3ccc(F)cc3)n2)C1 (mixture of isomers) [Example 5-80, 2,2-dimethylpropyl (3S,4R and 3R,4S)-3-{4-carbamoyl-3-[(4-fluorophenyl)amino]-1H-pyrazol-1-yl}-4-cyanopiperidine-1-carboxylate]
53 nM	2 nM	N#C[C@@H]1CCN(C(=O)OCc2ccccc2)CC1n1cc(C(N)=O)c(Nc2ccc(F)cc2)n1 (mixture of isomers) [Example 5-82, benzyl (3S,4R and 3R,4S)-3-{4-carbamoyl-3-[(4-fluorophenyl)amino]-1H-pyrazol-1-yl}-4-cyanopiperidine-1-carboxylate]
187 nM	6 nM	CCOC(=O)COC(=O)N1CC[C@@H](C#N)C(n2cc(C(N)=O)c(Nc3ccc(F)cc3)n2)C1 (mixture of isomers) [Example 5-84, 2-ethoxy-2-oxoethyl (3S,4R and 3R,4S)-3-{4-carbamoyl-3-[(4-fluorophenyl)amino]-1H-pyrazol-1-yl}-4-cyanopiperidine-1-carboxylate]
352 nM	9 nM	CN(C)CCOC(=O)N1CC[C@@H](C#N)C(n2cc(C(N)=O)c(Nc3ccc(F)cc3)n2)C1 (mixture of isomers) [Example 5-86, 2-(dimethylamino)ethyl (3S,4R and 3R,4S)-3-{4-carbamoyl-3-[(4-fluorophenyl)amino]-1H-pyrazol-1-yl}-4-cyanopiperidine-1-carboxylate]
